Experiment [1] has as its system rat. The experiment can be described thus: Formalin test, rat: prolonged inflammatory pain (weighted pain score). The conditions noted are these: i.p. just prior to formalin injection, 5-40 mg/kg. It is filed as in vivo. As to the method:
The formalin test is a chemically-induced tonic pain model in which biphasic changes of nociceptive behaviour are assessed and spinal/supraspinal plasticity of nociception is considered as a molecular basis for neuropathic pain particularly during the second (=late) phase of the test, during which most clinically used drugs against neuropathic pain are active.
The compound was tested for anti-nociceptive properties by use of the weighted behavioural scoring method: Freely moving animals underwent observational assessment of the position of the left hind paw according to a rating score scaled 0-3 before and 10, 20, 30 and 40 min after injection of 0.05 ml of sterile 2.5% formalin under the skin on the dorsal surface of the paw.

For experiment [2], the system named is rat. Briefly: Randall-Selitto paw pressure test, carrageenan induced acute inflammation. It is filed as in vivo. Particulars: for Mechanical nociceptive threshold pressure, Carrageenan + SPM 927: ±SEM, n=12. As to the method: Further potential anti-nociceptive efficacy of SPM 927 was assessed in a rat experimental model of acute inflammation using a modified Randall and Selitto procedure. Acute inflammation is induced by injection of s.c. carrageenan (1.0 mg in 0.1 ml saline/paw), an unspecific inflammatory agent, into the plantar surface of one hind paw of the animal. Mechanical sensitivity and nociceptive thresholds were measured using an algesimeter device that exerts a constantly increasing mechanical force (10 mm Hg/sec) on the inflammed hind paw. The mechanical nociceptive threshold is defined as the pressure (mm Hg) at which the rat vocalises or struggles or withdraws its paw. Since its original description, the Randall and Selitto mechanical paw pressure test has become a standard method for testing the efficacy of new compounds for alleviating acute inflammatory pain.
SPM 927 or vehicle (sterile water, 0.04 […]) was administered i.p. 1 hr and 45 minutes after carrageenan, meaning 15 to 20 minutes before the start of behavioural testing. As compared to the response threshold of vehicle-treated controls, an increase in the pressure required to produce a behavioural response is interpreted as antinociception.

The subject of experiment [3] is rat. Briefly: Chronic constriction injury (CCI, Bennett-model), mechanical allodynia (Von Frey pressure algometer). The conditions noted are these: for Pressure to elicit foot withdrawal, Post-operative + SPM 927: ligated hind paw, ±SEM. The class given is in vivo. The procedure:
(§1) The effectiveness of SPM 927 in reducing spontaneous chronic pain, mechanical allodynia, and thermal hyperalgesia was tested using the chronic constriction injury (CCI) model of peripheral neuropathy, one of the best characterised in vivo animal models used to study chronic pain due to peripheral nerve injury. In this model, loose ligatures are placed around the sciatic nerve, which produces axonal swelling and a partial deafferentation manifested as a significant but incomplete loss of axons in the distal portion of the peripheral nerve. One of the prominent behaviours seen following sciatic nerve ligation is the appearance of hind paw guarding, thought to be an indication of an ongoing spontaneous chronic pain. Support for this idea is derived from reports of increased spinal cord neural activity, and increased spontaneous neuronal discharge in spinothalamic tract neurons and in the ventrobasal thalamus in the absence of overt peripheral stimulation. In addition to the appearance of spontaneous pain behaviours, several abnormalities in stimulus evoked pain occur as a result of CCI, including thermal hyperalgesia and mechanical allodynia. The development of these abnormal stimulus-evoked pains has also been reported as occurring in areas outside the territory of the damaged nerve, areas innervated by uninjured nerves.
Behavioural tests for thermal hyperalgesia, and mechanical allodynia were conducted to evaluate different components of neuropathic pain. Baseline data for each test was collected prior to any experimental procedure; in addition, all animals were tested for the development of chronic pain behaviours 13-25 days after CCI surgery 1 day prior to the day of vehicle (0.04 ml sterile water/10 g body weight) or drug administration and after vehicle or drug administration. […]
Mechanical sensitivity and allodynia of the ligated rat hind paw was quantified by brisk foot withdrawal in response to normally innocuous mechanical stimuli as described previously. […]

The next experiment concerns female Wistar rats. The experiment can be described thus: Freund's complete adjuvant arthritis model, paw pressure test (Randall Selitto), vocalisation. The class given is in vivo, rat. The procedure: Experiments were performed in female Wistar rats weighing 80-90 g at the beginning of the experiments. Arthritis was induced by intraplantar injection of Freund's complete adjuvant (FCA, 0.1 ml) to one hindpaw. Drugs were given on day 11 after FCA injection in animals which developed systemic secondary arthritic symptoms as assessed by visual inspection. Mechanical hyperalgesia was than acutely applied and measured by means of the paw pressure test (Randall Selitto method) and supraspinal vocalisation as the biological endpoint of the nociceptive reaction. Measurements were taken at 0 min (before drug injection) and 15 min, 30 min, 60 min, and 24 h after drug injection and all data are expressed as percent of maximal possible effect (% MPE).
10 groups of 15 rats were used and received the following treatments: […]

The subject of experiment [4] is rat. The experiment can be described thus: Chronic constriction injury (CCI, Bennett-model), thermal hyperalgesia (Hargreaves). Particulars: for Withdrawal latency, Post-operative + SPM 927: ligated hind paw, radiant heat, ±SEM. It is filed as in vivo. The procedure: as §1
Behavioural tests for thermal hyperalgesia, and mechanical allodynia were conducted to evaluate different components of neuropathic pain. Baseline data for each test was collected prior to any experimental procedure; in addition, all animals were tested for the development of chronic pain behaviours 13-25 days after CCI surgery 1 day prior to the day of vehicle (0.04 ml sterile water/10 g body weight) or drug administration and after vehicle or drug administration. The sequence of the pain-related behaviour tests was (1) thermal hyperalgesia, (2) mechanical allodynia in order to minimise the influence of one test on the result of the next. The testing procedures and results are presented separately for each aspect of chronic pain. Either 0 (vehicle, 0.04 ml/10 g body weight), 5, 10, 20 or 40 mg/kg of SPM 927 (n=7-23/group) was administered i.p. 15 minutes before the first behavioural test.
(1) Thermal hyperalgesia was assessed by means of withdrawal latency in response to radiant heat applied to the subplantar surface of the ligated rat hind paw according to Hargreaves. As compared to the baseline latency (s), a significant decrease in the (postoperative) latency of foot withdrawal in response to the thermal stimulus was interpreted as indicating the presence of thermal hyperalgesia following chronic constriction injury.

The source of these data is patent publication US8053476B2, “Method for treating peripheral neuropathic pain” (UCB Pharma GmbH, priority 2001, dated 2011).

For `COC[C@@H](NC(C)=O)C(=O)NCc1ccccc1` [SPM 927, (R)-2-acetamide-N-benzyl-3-methoxypropionamide], in the experiment on rat [1], the “Effect on formalin-induced nociceptive behaviour” value is “dose dependent reduction of the formalin-induced tonic inflammatory nociceptive behaviour”. Besides, the “Mechanical nociceptive threshold pressure, Carrageenan + SPM 927” value in the experiment with rat [2] (20 mg/kg i.p. 1 hr 45 min after carrageenan) stood at 164.8 ± 13.5 mm Hg; in the experiment on rat [2] (40 mg/kg i.p. 1 hr 45 min after carrageenan), 232.7 ± 22.0 mm Hg. Also, the “Effect on carrageenan induced mechanical hyperalgesia” value in the experiment on rat [2] (20 and 40 mg/kg i.p.) is “markedly reduced the mechanical hyperalgesia induced by carrageenan”. The “Pressure to elicit foot withdrawal, Post-operative + SPM 927” value with rat [3] (20 mg/kg i.p.) amounted to 39.5 ± 3.62 g/mm^2; in the experiment on rat [3] (40 mg/kg i.p.), 42.9 ± 5.47 g/mm^2. In addition, the “Effect on mechanical allodynia induced by unilateral nerve ligation” value in the experiment with rat [3] (i.p., 5-40 mg/kg) was “dose dependently reduced the intensity of mechanical allodynia”. For the same compound, the “Anti-inflammatory effect in FCA arthritis” value with female Wistar rats (30 mg/kg early (with FCA)) is “no anti-inflammatory effects”. In addition, in the experiment on female Wistar rats (5-40 mg/kg acute, significant at 30 and 40 mg/kg), the “Anti-nociceptive effect in FCA arthritis” value was “dose-dependent anti-nociceptive”. The “% MPE” value is given as −5 % MPE in the experiment with female Wistar rats (FCA rats, 5 mg/kg acute (day 11), 15 min); −5 % MPE in the experiment on female Wistar rats (FCA rats, 5 mg/kg acute (day 11), 30 min); −12 % MPE in the experiment with female Wistar rats (FCA rats, 5 mg/kg acute (day 11), 60 min); −14 % MPE with female Wistar rats (FCA rats, 5 mg/kg acute (day 11), 24 h); “+7 % MPE” with female Wistar rats (FCA rats, 10 mg/kg acute (day 11), 15 min); −2 % MPE in the experiment on female Wistar rats (FCA rats, 10 mg/kg acute (day 11), 30 min). The “% MPE” value is 0 % MPE with female Wistar rats (FCA rats, 10 mg/kg acute (day 11), 60 min); −5 % MPE in the experiment with female Wistar rats (FCA rats, 10 mg/kg acute (day 11), 24 h); “+1 % MPE” with female Wistar rats (FCA rats, 20 mg/kg acute (day 11), 15 min); −20 % MPE in the experiment with female Wistar rats (FCA rats, 20 mg/kg acute (day 11), 30 min); −9 % MPE with female Wistar rats (FCA rats, 20 mg/kg acute (day 11), 60 min); −20 % MPE in the experiment on female Wistar rats (FCA rats, 20 mg/kg acute (day 11), 24 h). The “% MPE” value in the experiment with female Wistar rats (FCA rats, 30 mg/kg acute (day 11), 15 min) is “+58 % MPE”; in the experiment with female Wistar rats (FCA rats, 30 mg/kg acute (day 11), 30 min), “+33 % MPE”; in the experiment with female Wistar rats (FCA rats, 30 mg/kg acute (day 11), 60 min), “+16 % MPE”; in the experiment on female Wistar rats (FCA rats, 30 mg/kg acute (day 11), 24 h), −8 % MPE; in the experiment with female Wistar rats (FCA rats, 30 mg/kg early (with FCA), anti-inflammatory effects group, 15 min) it was −14 % MPE; with female Wistar rats (FCA rats, 30 mg/kg early (with FCA), anti-inflammatory effects group, 30 min) it was −7 % MPE. Further, the “% MPE” value in the experiment with female Wistar rats (FCA rats, 30 mg/kg early (with FCA), anti-inflammatory effects group, 60 min) was −3 % MPE; in the experiment with female Wistar rats (FCA rats, 30 mg/kg early (with FCA), anti-inflammatory effects group, 24 h), −11 % MPE; with female Wistar rats (FCA rats, 40 mg/kg acute (day 11), 15 min) it was “+100 % MPE”; in the experiment on female Wistar rats (FCA rats, 40 mg/kg acute (day 11), 30 min), “+100 % MPE”; in the experiment with female Wistar rats (FCA rats, 40 mg/kg acute (day 11), 60 min) it was “+14 % MPE”; in the experiment with female Wistar rats (FCA rats, 40 mg/kg acute (day 11), 24 h), −7 % MPE. For the same compound, in the experiment with female Wistar rats (FCA rats, most prominent during first 30 min), the “Dose at which anti-nociceptive effects started” value is given as 30 mg/kg. For the same compound, the figures for the “Withdrawal latency, Post-operative + SPM 927” value in the experiment on rat [4] (5 mg/kg i.p.) and in the experiment on rat [4] (10 mg/kg i.p.) were 9.1 ± 0.97 s and 8.0 ± 0.58 s, respectively. Moreover, the “Dose at which maximum effect on thermal hyperalgesia was seen” value in the experiment on rat [4] (i.p.) amounted to 20 mg/kg. For the same compound, the “Effect on CCI-induced thermal hyperalgesia” value with rat [4] (i.p., significant only at 20 and 40 mg/kg) is “dose dependently reduced chronic constriction injury-induced thermal hyperalgesia”.
With `CN1CC[C@]23c4c5ccc(O)c4O[C@H]2[C@@H](O)C=C[C@H]3[C@H]1C5` [morphine, reference compound], the “Antinociceptive effect of positive control” value in the experiment on female Wistar rats (10 mg/kg, arthritic and normal animals) was “clear antinociceptive effects in arthritic and normal animals”. The “% MPE” value is listed as “+100 % MPE” in the experiment with female Wistar rats (FCA rats (disease condition), 10 mg/kg, 15 min); “+100 % MPE” in the experiment with female Wistar rats (FCA rats (disease condition), 10 mg/kg, 30 min); “+100 % MPE” in the experiment with female Wistar rats (FCA rats (disease condition), 10 mg/kg, 60 min); −7 % MPE in the experiment on female Wistar rats (FCA rats (disease condition), 10 mg/kg, 24 h); “+100 % MPE” in the experiment on female Wistar rats (no FCA (normal condition), 10 mg/kg, 15 min); “+100 % MPE” in the experiment on female Wistar rats (no FCA (normal condition), 10 mg/kg, 30 min). In addition, the “% MPE” value was “+100 % MPE” with female Wistar rats (no FCA (normal condition), 10 mg/kg, 60 min) and “+2 % MPE” in the experiment with female Wistar rats (no FCA (normal condition), 10 mg/kg, 24 h).
